Values quoted from earlier work, collected in patent US20090117102A1, “Methods and compositions using CD3 agonists” (priority 2004, published 2009).

Tests used:
T cell [1] = conditions: Wong Transplantation 50 (1990)
T cell [2] = conditions: Van Wauve, J. Immunol. 124 (1980)

## OKT3: murine monoclonal antibody specific for the human CD3 antigen, first monoclonal antibody approved by the FDA
T cell [1]
  T cell killer activity: potent T cell killer
T cell [2]
  T cell mitogen activity: potent T cell mitogen
